Results: patent publication US9682931B2, “Aryloyl(oxy or amino)pentafluorosulfanylbenzene compound, pharmaceutically acceptable salt thereof, and prodrugs thereof” (UBE INDUSTRIES, LTD., priority 2013, dated 2017)
In brackets after ≈: the same amount, converted by molar mass.

How the values were obtained:
[1] = test system: caspase 3/7 in A549 cells (human lung cancer, adenocarcinoma); test: Test of inducing apoptosis of A549 cells (caspase 3/7 activity); format: cell-based; conditions: 5 hours
Description: (Test of Inducing Apoptosis of A549 Cells (Human Lung Cancer, Adenocarcinoma))
To evaluate apoptosis induction of a sample (Compound 3), the activity of caspase 3/7 was measured.
1. Measurement Reagents, Equipment and Instruments
APO-ONE Homogeneous Caspase-3/7 Assay (G7790, Lot No. 314408; Promega)
Fluorescence plate reader (SpectraMax GEMINI EM; Molecular Devices)
Cells: A549 cells (obtained from the Research Resource Bank of the Human Sciences Foundation)
Medium: 10% FBS and 0.1 mmol/L Non-Essential Amino Acids Solution-containing MEM medium
A 1 mmol/L solution prepared with DMSO was prepared with a medium so as to have a final concentration (the final concentration of DMSO was set to be 0.1%).
A sample was weighed and a medium was added so as to obtain 500 μg/mL. While warming at 37° C., sonication was performed for 60 minutes to make dissolution. Filtration was performed by a 0.22 μm-filter. The 500 μg/mL solution was subjected to serial dilution in a common ratio of 10 with the medium to prepare 50, 5, 0.5, 0.05 and 0.005 μg/mL.
(1) (The day before test)
On a 96-well plate, A549 cells were seeded in a ratio of 10000 cells/100 μL/well. […]
(4) Reaction was performed at room temperature while blocking light. Two hours later, fluorescence was measured (excitation wavelength: 499 nm, fluorescence wavelength: 521 nm)

MCF-7 (breast cancer) = test: Evaluation of anticancer action, cell proliferation inhibition (WST-8), MCF-7; format: cell-based; conditions: Homo sapiens, MCF7, MCF-7, about 72 hours
Excerpt: The cell proliferation inhibitory effects of a test substance (Compound 3) on various types of cancer cells were examined.
1. Measuring Reagent and Analysis Software
WST-8 Kit (Cat. No. 260-96165 or 260-96162; manufactured by Kishida Chemical Co., Ltd.) for counting cell number
Software for graph making and measurement of GI50 value: XLfit 5.2 (ID Business Solutions Ltd.)
2. Cells and Culture Conditions
Five types of cells and medium (the following Table) were used. The cells were obtained from the Research Resource Bank of the Human Sciences Foundation.
On the day when a sample was to be added, the sample was weighed and a medium for each type of cells was added so as to be 500 μg/mL. Sonication was performed while warming at 37° C. for 60 minutes to be dissolved. Then, filtration was performed by a 0.22 m-filter. The 500 μg/mL-solution was diluted with the medium for each type of cells to prepare 200 μg/mL, 60 μg/mL, 20 μg/mL, 6 μg/mL, 2 μg/mL, 0.6 μg/mL and 0.2 μg/mL solutions, which were specified as two-fold concentration test solutions (the final concentrations of the test substance were 250 µg/mL, 100 μg/mL, 30 μg/mL, 10 μg/mL, 3 μg/mL, 1 μg/mL, 0.3 μg/mL, […], respectively). […]
(8) Absorbance values at 450 nm and 650 nm were measured to calculate O.D. 450 and O.D. 650. […]
ODdrug-exposed wells: absorbance of a well containing a sample […]

O=C(Nc1ccc(S(F)(F)(F)(F)F)cc1)c1cc(O)c(O)c(O)c1 [Compound 3, 4-(3,4,5-trihydroxybenzoylamino)pentafluorosulfanylbenzene]
caspase 3/7 activity ([1]; 0.005 μg/mL to 5 μg/mL): high activity was observed | caspase 3/7 activity ([1]; all concentrations 0.005 μg/mL to 500 μg/mL): tends to enhance caspase 3/7 activity | GI50 (MCF-7 (breast cancer)): 13.6 mg/L (≈ 36.6 µM)
